From ChEMBL document CHEMBL1132903 (Bioorg Med Chem Lett, 2000)
pKi: −log10 of the molar value. Blank lines part the entries; values can stand above or below the compound they belong to. Where a SMILES comes first, the peptide text is derived from it.

Key:
[1] = biological target: Pancreatic elastase (Sus scrofa) (UniProt P08419+P00772); test: Inhibition constant for uncompetitive inhibition of Suc-AAPA and Pancreatic elastase; type: protein assay
[2] = biological target: T1, Neutrophil elastase (Homo sapiens, UniProt P08246); test: Competitive inhibition constant against Human neutrophil elastase using the reporter substrate MeO-AAPV-pNa; NI means no inhibition
T1 sequence (P08246 whole entry): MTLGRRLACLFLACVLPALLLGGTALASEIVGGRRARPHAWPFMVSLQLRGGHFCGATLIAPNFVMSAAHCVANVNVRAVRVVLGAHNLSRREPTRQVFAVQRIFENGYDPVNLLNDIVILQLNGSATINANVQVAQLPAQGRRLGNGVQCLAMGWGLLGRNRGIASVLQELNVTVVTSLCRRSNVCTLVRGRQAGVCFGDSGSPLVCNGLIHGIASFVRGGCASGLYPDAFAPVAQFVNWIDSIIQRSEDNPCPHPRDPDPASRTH

[3] = biological target: T2, Chymotrypsinogen A (Bos taurus, UniProt P00766); test: Competitive inhibition constant against Chymotrypsinogen using the reporter substrate Suc-AAPA-pNa
[4] = biological target: T3, Serine protease 1 (Homo sapiens, UniProt P07477)
[5] = biological target: T1, Neutrophil elastase; test: Competitive inhibition constant against Human neutrophil elastase using the reporter substrate MeO-AAPV-pNa
[6] = biological target: T4, Chymotrypsin-like elastase family member 2A (Sus scrofa, UniProt P08419); test: Peptide was tested for inhibition constant for uncompetitive inhibition using Suc-AAPA and Pancreatic elastase
T4 sequence (P08419 whole entry): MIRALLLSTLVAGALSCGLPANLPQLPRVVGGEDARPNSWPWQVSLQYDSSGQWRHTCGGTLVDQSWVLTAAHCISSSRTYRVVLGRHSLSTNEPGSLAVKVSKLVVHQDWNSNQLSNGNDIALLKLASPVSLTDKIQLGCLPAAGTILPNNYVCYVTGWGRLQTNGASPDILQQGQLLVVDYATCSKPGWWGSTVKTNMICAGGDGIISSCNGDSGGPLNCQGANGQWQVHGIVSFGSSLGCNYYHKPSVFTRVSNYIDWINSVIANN

[7] = biological target: T2, Chymotrypsinogen A; test: Competitive inhibition constant against Chymotrypsinogen using the reporter substrate Suc-AAPA-pNa; No inhibition
[8] = biological target: T3, Serine protease 1; test: Competitive inhibition constant against trypsin using the reporter substrate Ac-R-pNa
[9] = biological target: T5, Chymotrypsin-like elastase family member 2A (Sus scrofa) (UniProt P08419)
T5 sequence (whole entry): T4 sequence (P08419 whole entry)
Description: Peptide was tested for inhibition constant for competitive inhibition using Suc-AAPA-pNa and Pancreatic elastase

T3 sequence (P07477 whole entry): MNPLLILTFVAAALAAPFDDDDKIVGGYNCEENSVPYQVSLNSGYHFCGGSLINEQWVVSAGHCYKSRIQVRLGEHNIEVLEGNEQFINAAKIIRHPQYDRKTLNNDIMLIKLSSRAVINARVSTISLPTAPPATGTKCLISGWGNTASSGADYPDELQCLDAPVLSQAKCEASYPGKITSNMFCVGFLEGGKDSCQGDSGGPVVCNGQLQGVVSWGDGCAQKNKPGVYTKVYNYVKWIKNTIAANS
Sequence of Pancreatic elastase (Sus scrofa) (P00772 whole entry, looked up, one chain of several): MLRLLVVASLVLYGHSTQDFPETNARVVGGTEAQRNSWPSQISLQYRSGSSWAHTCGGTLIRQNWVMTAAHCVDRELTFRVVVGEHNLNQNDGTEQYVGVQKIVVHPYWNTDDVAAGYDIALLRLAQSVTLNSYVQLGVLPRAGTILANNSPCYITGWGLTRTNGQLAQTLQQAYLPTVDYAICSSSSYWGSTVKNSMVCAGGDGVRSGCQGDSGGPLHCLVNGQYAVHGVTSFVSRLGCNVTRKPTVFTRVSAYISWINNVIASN

Compound: CC[C@@H](C)[C@@H](NC(=O)[C@@H](C)NC(=O)[C@@H](CCC(=O)O)NC(=O)[C@@H](CC(C)C)NC(=O)[C@@H](Cc1ccccc1)NC(=O)[C@H](N)CCSC)C(=O)N1CCC[C@H]1C(=O)N[C@H](CCCCN)C(=O)O
- Ki' [1]: 640 µM
- Ki [2]: Not Active

Compound: CC[C@@H](C)[C@@H](NC(=O)[C@@H](CC)NC(=O)[C@@H](CCC(=O)O)NC(=O)[C@@H](CC(C)C)NC(=O)[C@@H](Cc1ccccc1)NC(=O)[C@H](N)CCSC)C(=O)N1CCC[C@H]1C(=O)O
- Ki' [1]: 220 µM

Compound: CC[C@H](C)[C@H](NC(=O)[C@H](C)NC(=O)[C@H](CCC(=O)O)NC(=O)[C@H](CC(C)C)NC(=O)[C@H](Cc1ccccc1)NC(=O)[C@@H](N)CCSC)C(=O)N1CCC[C@H]1C(=O)N[C@@H](CCSC)C(=O)N[C@@H](CO)C(=O)O
- pKi [3]: 2.51
- Ki [4]: Not Active

Compound: CC[C@@H](C)[C@@H](NC(=O)[C@@H](C)NC(=O)[C@@H](CCC(=O)O)NC(=O)[C@@H](CC(C)C)NC(=O)[C@@H](Cc1ccccc1)NC(=O)[C@H](N)CCSC)C(=O)N1CCC[C@H]1C(=O)N[C@@H](CCSC)C(=O)N[C@@H](CO)C(=O)O
- Ki' [1]: 1200 µM
- pKi [5]: 3.72

Compound: CC[C@H](C)[C@H](NC(=O)[C@H](C)NC(=O)[C@H](CCC(=O)O)NC(=O)[C@H](CC(C)C)NC(=O)[C@H](Cc1ccccc1)NC(=O)[C@@H](N)CCSC)C(=O)N1CCC[C@H]1C(=O)N[C@@H](CCSC)C(=O)O
- pKi [3]: 2.64
- Ki [4]: Not Active
- Ki [6]: No inhibition

Compound: CC[C@@H](C)[C@H](NC(=O)[C@H](CO)NC(=O)[C@H](CCSC)NC(=O)[C@@H]1CCCN1C(=O)[C@H](NC(=O)[C@@H](C)NC(=O)[C@@H](CCC(=O)O)NC(=O)[C@@H](CC(C)C)NC(=O)[C@@H](Cc1ccccc1)NC(=O)[C@H](N)CCSC)[C@H](C)CC)C(=O)O
- Ki' [1]: 340 µM
- pKi [5]: 4.57

Compound: CC[C@H](C)[C@H](NC(=O)[C@H](C)NC(=O)[C@H](CCC(=O)O)NC(=O)[C@H](CC(C)C)NC(=O)[C@H](Cc1ccccc1)NC(=O)[C@@H](N)CCSC)C(=O)N1CCC[C@H]1C(=O)N[C@@H](CCCCN)C(=O)O
- Ki [7]: Not Active
- pKi [8]: 3.27

Compound: CC[C@H](C)[C@H](NC(=O)[C@H](CO)NC(=O)[C@H](CCSC)NC(=O)[C@@H]1CCCN1C(=O)[C@@H](NC(=O)[C@H](C)NC(=O)[C@H](CCC(=O)O)NC(=O)[C@H](CC(C)C)NC(=O)[C@H](Cc1ccccc1)NC(=O)[C@@H](N)CCSC)[C@@H](C)CC)C(=O)O
- pKi [3]: 3.80
- Ki [4]: Not Active

Compound: CC[C@@H](C)[C@@H](NC(=O)[C@@H](C)NC(=O)[C@@H](CCC(=O)O)NC(=O)[C@@H](CC(C)C)NC(=O)[C@@H](Cc1ccccc1)NC(=O)[C@H](N)CCSC)C(=O)N1CCC[C@H]1C(=O)N[C@@H](CCSC)C(=O)O
- Ki' [1]: 440 µM
- Ki' [9]: No inhibition
- pKi [5]: 3.57

More lines, now with the values ahead:

- Ki' [1]: 1400 µM
Compound: CC(C)C[C@H](NC(=O)[C@@H](N)Cc1ccccc1)C(=O)N[C@@H](CCC(=O)O)C(=O)O (H-Phe-Leu-Glu-OH)

- Ki' [1]: 890 µM
Compound: CSCC[C@H](N)C(=O)N[C@@H](Cc1ccccc1)C(=O)N[C@@H](CC(C)C)C(=O)N[C@@H](C)C(=O)O (H-MFLA-OH)

- Ki' [1]: 530 µM
Compound: CC[C@H](C)[C@H](NC(=O)[C@H](C)NC(=O)[C@H](CCC(=O)O)NC(=O)[C@H](CC(C)C)NC(=O)[C@@H](N)Cc1ccccc1)C(=O)N1CCC[C@@H]1C(=O)N[C@H](CCSC)C(=O)O

- Ki' [1]: 890 µM
Compound: CC[C@@H](C)[C@@H](NC(=O)[C@@H](C)NC(=O)[C@@H](CCC(=O)O)NC(=O)[C@@H](CC(C)C)NC(C)=O)C(=O)N1CCC[C@H]1C(=O)N[C@@H](CCSC)C(=O)O

- pKi [3]: 3.62
Compound: H-MFLEAIPMSIPPE-OH

- Ki [7]: Not Active
- Ki' [1]: 370 µM
- Ki [4]: Not Active
- Ki [2]: Not Active
Compound: CSCC[C@@H](N)C(=O)N[C@H](Cc1ccccc1)C(=O)N[C@H](CC(C)C)C(=O)N[C@H](CCC(=O)O)C(=O)O
